Laboratory results taken from patent publication US20150166520A1, “AMIDO-SUBSTITUTED PYRIMIDINONE DERIVATIVES USEFUL FOR THE TREATMENT OF HIV INFECTION” (MERCK SHARP & DOHME CORP., priority 2012, published 2015).

Experiments:
[1] = tested on: cryopreserved hepatocytes from rat; assay: Metabolism of compounds in hepatocyte suspensions (prodrug hydrolysis), rat; assay type: in vitro ADME; conditions: prodrug 1 μM, rat hepatocytes 1×10^6 cells/mL, 37° C.
Protocol: (§1) Selected compounds of the present invention (1 μM) were incubated with suspensions of cryopreserved hepatocytes from rat, dog and human subjects at a cell density of 1×10^6 cells/mL. The samples were incubated for 0, 5, 15, 30, 60 and 90 minutes in a 95% humidified incubator at 37° C. with 5% CO2. At each time point, the samples were quenched with acetonitrile containing an appropriate internal standard. The samples were then vortex-mixed and centrifuged at ˜2,900×g for 30 minutes. The supernatants were transferred to clean plates and analyzed using LC-MS/MS. Following quantification of prodrug and parent in the samples, half lives of conversion (t1/2) were determined from the rates of prodrug degradation according to first-order kinetics. Conversion to active metabolite (compound 1a) was confirmed by following the formation of compound 1a.

[2] = tested on: cryopreserved hepatocytes from dog; assay: Metabolism of compounds in hepatocyte suspensions (prodrug hydrolysis), dog; assay type: in vitro ADME; conditions: prodrug 1 μM, dog hepatocytes 1×10^6 cells/mL, 37° C.
Protocol: as §1

[3] = tested on: cryopreserved hepatocytes from human; assay: Metabolism of compounds in hepatocyte suspensions (prodrug hydrolysis), human; assay type: in vitro ADME; conditions: prodrug 1 μM, human hepatocytes 1×10^6 cells/mL, 37° C.
Protocol: as §1

[4] = Intravenous pharmacokinetics in Wistar-Hanover rats; assay type: in vivo, male Wistar-Hanover rats; conditions: rat, plasma; for half-life / AUC / Vd / clearance: male, Wistar-Hanover; for half-life / Vd / clearance: prodrug; for AUC / nAUC0-∞: prodrug measured; for AUC: read-out: AUC0-x; for Vd: read-out: Vdss; for clearance: read-out: Clp
Protocol: (§2) Selected compounds of the present invention were administered in suitable vehicles to male Wistar-Hanover rats. Intravenous (IV) administration to rats was conducted via cannulas implanted in the jugular vein. For oral administration, test compounds were administered by gavage. Blood samples were serially collected following dose administration for up to 24 hr and plasma was separated by centrifugation. The concentration of test compound in rat plasma were determined by a LC-MS/MS assay following a protein precipitation step and addition of an appropriate internal standard. Quantification was done by determining peak area-ratios of the test compound and compound 1a (the metabolite of each of the test compounds) to the internal standard. Pharmacokinetic parameters were obtained using non-compartmental methods (Watson®). The area under the plasma concentration-time curve (AUC0-t) was calculated from the first time point (0 min) up to the last time point with measurable test compound concentration using the linear trapezoidal or linear/log-linear trapezoidal rule. The IV plasma clearance was calculated by dividing the dose by AUC0-inf. The terminal half-life of elimination was determined by unweighted linear regression analysis of the log-transformed data. The time points for determination of half-life were selected by visual inspection of the data. The volume of distribution at steady state (Vdss) was obtained from the product of plasma clearance and mean residence time (determined by dividing the area under the first moment curve by the area under the curve). The maximum plasma concentration (Cmax) and the time at which maximum concentration occurred (Tmax) were obtained by inspection of the plasma concentration-time data. Absolute oral bioavailability was determined from dose-adjusted IV and P.O. AUC ratios.

[5] = Oral pharmacokinetics in Wistar-Hanover rats; assay type: in vivo, male Wistar-Hanover rats; conditions: plasma, rat; for bioavailability: oral, prodrug, from dose-adjusted IV and P.O. AUC ratios; for Tmax / AUC / Cmax / nAUC: oral gavage, prodrug measured; for AUC: read-out: AUC0-x hr
Protocol: as §2

[6] = Dog pharmacokinetic study, oral dose; assay type: in vivo; design: AUC(0-t) / Tmax: dose or concentration left out as unconfirmed; conditions: male, plasma, fasted Beagle dogs, compound measured = prodrug dosed; for Cmax / AUC(0-t): mean ± SE; for AUC(0-t): read-out: AUC0-24 hr; for Tmax: median
Protocol: (§3) Six Male Beagle Dogs (Marshall Farms) weighing 9.0-11.6 kg were used for the studies. Studies were conducted under a protocol approved by the WP-IACUC (Animal Procedure Statement #09068544080285). […] Dosing was followed by 5 mL water rinse via oral gavage for oral dosing or with a post-dose water flush of the catheter for colonic dosing. Water was restricted for 1 hour post dose. Food was returned at 4 hours after dosing. Blood (1-mL) was drawn at pre-dose, 0.25, 0.5, 1, 2, 4, 6, 8 and 24 hours post-dosing. The plasma was separated by centrifugation (10 minutes at 2500 g) and kept frozen at −70° C. until analysis by LC-MS/MS.

[7] = Dog pharmacokinetic study, colonic dose; assay type: in vivo, Male Beagle Dogs; design: AUC(0-t) / Tmax: dose or concentration left out as unconfirmed; conditions: for colonic absorption versus metabolite Compound 1a: Beagle dogs, colonic dosing, statement in words; for Cmax / AUC(0-t) / Tmax: male, dog, plasma, fasted Beagle dogs, Colonic, compound measured = prodrug dosed; for Cmax / AUC(0-t): mean ± SE; for AUC(0-t): read-out: AUC0-24 hr; for Tmax: median
Protocol: as §3

[8] = male, Wistar-Hanover, read-out: Cmax

Row | SMILES | Remaining at 90 min, Rat [1] | Remaining at 90 min, Dog [2] | Remaining at 90 min, Human [3] | half-life [4] | AUC [4] | nAUC0-∞ [4] | bioavailability ([5]; male, Wistar-Hanover) | Tmax ([5]; male, Wistar-Hanover) | AUC ([5]; male, Wistar-Hanover) | Cmax [5, 8] | nAUC [5] | further results
1 | CCCCOC(=O)OC(C)Oc1c(C(=O)NCc2ccc(F)cc2)nc(C(C)(C)NC(=O)c2nnc(C)o2)n(C)c1=O (stereo not shown) [Compound 7] | 2.72% | 3.31% | 2.12% |  |  |  |  |  |  |  |  | 
2 | Cc1nnc(C(=O)NC(C)(C)c2nc(C(=O)NCc3ccc(F)cc3)c(OC(OC(=O)OC(C)C)C(C)C)c(=O)n2C)o1 (stereo not shown) [Compound 12] | 38.75% | 5.97% | 14.81% |  |  |  |  |  |  |  |  | 
3 | CCOC(=O)OC(C)Oc1c(C(=O)NCc2ccc(F)cc2)nc(C(C)(C)NC(=O)c2nnc(C)o2)n(C)c1=O (stereo not shown) [Compound 1] | 30.30% | 15.94% | 19.32% | 9 min | 0.012 µM·h | 0.012 µM·h | 3% | 15 min | 0.002 µM·h | 6 nM | 0.0004 µM·h | Cmax [6]: 212 ± 32 nM; AUC(0-t) [6]: 0.146 ± 0.033 µM·h; Tmax [6]: 18 min; colonic absorption versus metabolite Compound 1a [7]: significant increase in colonic absorption; Cmax [7]: 91 ± 25 nM; AUC(0-t) [7]: 0.083 ± 0.034 µM·h; Tmax [7]: 18 min
4 | Cc1nnc(C(=O)NC(C)(C)c2nc(C(=O)NCc3ccc(F)cc3)c(OCOC(=O)OC(C)C)c(=O)n2C)o1 [Compound 20] | 0.60% | 1.70% | 1.80% |  |  |  |  |  |  |  |  | 
5 | Cc1nnc(C(=O)NC(C)(C)c2nc(C(=O)NCc3ccc(F)cc3)c(OCOC(=O)C(C)(C)C)c(=O)n2C)o1 [Compound 22] | 3.58% | 3.21% | 4.27% | 2.4 min | 0.012 µM·h | 0.012 µM·h |  |  |  |  |  | Cmax [5]: BLQ; Cmax [6]: 8 ± 2 nM; AUC(0-t) [6]: 0.006 ± 0.002 µM·h; Tmax [6]: 30 min; colonic absorption versus metabolite Compound 1a [7]: significant increase in colonic absorption; Cmax [7]: 10 ± 3 nM; AUC(0-t) [7]: 0.014 ± 0.003 µM·h; Tmax [7]: 15 min
6 | CC(=O)OC(Oc1c(C(=O)NCc2ccc(F)cc2)nc(C(C)(C)NC(=O)c2nnc(C)o2)n(C)c1=O)C(C)C (stereo not shown) [Compound 23] | 50.65% | 8.14% | 28.06% |  |  |  |  |  |  |  |  | 
7 | Cc1nnc(C(=O)NC(C)(C)c2nc(C(=O)NCc3ccc(F)cc3)c(OC(C)OC(=O)OC(C)C)c(=O)n2C)o1 (stereo not shown) [Compound 2] |  |  |  | 10.2 min | 0.119 µM·h | 0.119 µM·h | 6.6% | 67.8 min | 0.039 µM·h | 19 nM | 0.008 µM·h | Vd [4]: 2.17 L/kg; clearance [4]: 244 mL/min/kg
8 | CCOC(=O)OC(CC)Oc1c(C(=O)NCc2ccc(F)cc2)nc(C(C)(C)NC(=O)c2nnc(C)o2)n(C)c1=O (stereo not shown) [Compound 15] | 6.20% | 8.90% | 14.00% | 8.4 min | 0.085 µM·h | 0.085 µM·h | 7% | 45 min | 0.028 µM·h | 21 nM | 0.006 µM·h | Vd [4]: 3.48 L/kg; clearance [4]: 388 mL/min/kg
